# Reference: patent publication US8940730B2, “Methods and compositions of treating a Flaviviridae family viral infection” (The Board of Trustees of the Leland Stanford Junior …, priority 2007, dated 2015)
# Like-named read-outs stand apart in the source and are kept apart here.
# Key:
# [1] = tested on: HCV genotype 2a infectious clone; test: HCV genotype 2a infectious clone assay (Renilla luciferase); type: cell-based; settings: % replication activity of control with no test compound
# Method: The assays in parts A and B were used to generate the genotype 1b inhibitory activity and related cell toxicity (viability) data supported herein. This assay has been used to generate the genotype 2a inhibitory activity data supported herein.
# (§1) 1) Wash cells once with PBS, trypsinize. […] Mix twice by pipeting. […] Make a common stock from all tubes. […] 15) Incubate for 24 hr before treatment.
# (§2) 3) Repeat daily for 2 more days.
# Huh7.5 cells = settings: human, 3 days
# Method: as §1, §2
# 1) Alamar blue assay—a) Include medium for background subtraction (and also for seeing change in color easily). b) Aspirate medium. c) Make a stock of medium plus 10% Alamar blue. Total volume per well is 100 μl. d) Incubate for 2-2.5 hrs at 37° C. (or until there is a color change). c) Read plates at flex station.
# Huh7 cell line = test: MTT assay for HCV replicon reporter cell lines (cell toxicity); type: cell-based; settings: Homo sapiens
# HCV 1b RNA replicon = test: Luciferase assay for HCV genotype 1b replicon reporter cell lines
# [2] = Huh-7, cell toxicity, MTT, top concentration 25 μM, read-out: Cell Viability EC50
# [3] = Hepatitis C virus, Huh-7, 48 h, read-out: 1b EC50, 1b replicon, Huh7, 48 hours, top concentration 25 μM
# [4] = Huh-7, read-out: Cell Viability EC50
SMILES,EC50 (Huh7 cell line; [2]) [µM],EC50 (HCV 1b RNA replicon; [3]) [µM],other results
Cc1ccc2c(c1)c(OCCCN1CCCC1)nn2Cc1ccccc1 [EBP178],,,"activity at 5 µM ([1]; Hepatitis C virus, read-out: 2a (% activity @ 5 μM), 5 μM): 25%; 2a cell viability (@ 5 μM) (Huh7.5 cells): 92%"
C[C@H]1CCCN1CCCOc1nn(Cc2ccc(Cl)cc2)c2ccccc12 [EBP389],,,2a (% activity @ 5 μM) ([1]; 5 μM): 44%
OCC1CCN(CCCOc2nn(Cc3ccc(Cl)cc3)c3ccccc23)CC1 [EBP502],> 25,4.2,
O[C@@H]1CN(CCCOc2nn(Cc3ccc(Cl)cc3)c3ccccc23)C[C@@H]1O [EBP514],> 25,5.1,
Clc1ccc(Cn2nc(OCCCN3CC=CC3)c3ccccc32)cc1 [EBP519],,18,EC50 (Huh7 cell line; [4]): > 25 µM
COC[C@H]1CCCN1CCCOc1nn(Cc2ccc(Cl)cc2)c2ccc(N(C)c3ccccc3)cc12 [EBP522],> 25,6,
Clc1ccc(Cn2nc(OCCCN3CC4CC3CO4)c3ccccc32)cc1 (centres unmarked) [EBP528],,7.9,EC50 (Huh7 cell line; [4]): 8.4 µM
COCC1CCN(CCCOc2nn(Cc3ccc(Cl)cc3)c3ccccc23)CC1 [EBP530],> 25,7.9,
Nc1ccc2c(c1)c(OCCCN1CCCC1)nn2Cc1ccc(Cl)cc1 [EBP531],> 25,3.9,
CS(=O)(=O)Nc1ccc2c(c1)c(OCCCN1CCCC1)nn2Cc1ccc(Cl)cc1 [EBP532],> 25,8.5,
Clc1ccc(Cn2nc(OCCCCN3CCCC3)c3ccccc32)cc1 [EBP548],> 25,3.2,
Clc1ccc(Cn2nc(OCC3CCCNC3)c3cc(Cl)ccc32)cc1 (centres unmarked) [EBP590],11,7.3,
O[C@@H]1CCN(CCCOc2nn(Cc3ccc(Cl)cc3)c3ccc(Cl)cc23)C1 [EBP644],> 25,7.5,
C[C@@H]1CCCN1CCCOc1nn(Cc2ccc(Cl)cc2)c2ccc(Cl)cc12 [EBP645],> 25,8,
C[C@H]1CCCN1CCCOc1nn(Cc2ccc(Cl)cc2)c2ccc(Cl)cc12 [EBP646],> 25,6.6,
OC[C@@H]1CCCN1CCCOc1nn(Cc2ccc(Cl)cc2)c2ccc(Cl)cc12 [EBP647],> 25,7.6,
Clc1ccc(Cn2nc(OCCCN3CCC[C@H]3CN3CCCC3)c3cc(Cl)ccc32)cc1 [EBP649],> 25,5.6,

SMILES,EC50 (Huh7 cell line; [2]) [µM],EC50 (HCV 1b RNA replicon; [3]) [µM],other results
C[C@H]1CCCN1CCCOc1nn(Cc2ccc(Cl)cc2)c2ccc(Br)cc12 [EBP743],,8.1,
C[C@H]1CCCN1CCCOc1nn(Cc2ccc(Cl)cc2)c2ccc(-c3cccnc3)cc12 [EBP846],,,"EC50 (HCV 1b RNA replicon; read-out: 1b EC50, 1b replicon, Huh7, 48 hours, top concentration 25 μM): 8.2 µM"
C[C@H]1CCCN1CCCOc1nn(Cc2ccc(Cl)cc2)c2ccc(-c3ccoc3)cc12 [EBP864],> 25,6.4,
C[C@H]1CCCN1CCCOc1nn(Cc2ccc(Cl)cc2)c2ccc(N3CCCCC3)cc12 [EBP865],,8.2,
C[C@H]1CCCN1CCCOc1nn(Cc2ccc(Cl)cc2)c2ccc(-c3cccnc3)cc12 [EBP897],> 25,7.2,
COc1cncc(-c2ccc3c(c2)c(OCCCN2CCC[C@@H]2C)nn3Cc2ccc(Cl)cc2)c1 [EBP898],> 25,5.3,
C[C@H]1CCCN1CCCOc1nn(Cc2ccc(Cl)cc2)c2ccc(-c3ccc(N4CCOCC4)nc3)cc12 [EBP899],> 25,2.2,
CC(=O)Nc1ccc(-c2ccc3c(c2)c(OCCCN2CCC[C@@H]2C)nn3Cc2ccc(Cl)cc2)cn1 [EBP900],> 25,5.6,
Cc1ccncc1-c1ccc2c(c1)c(OCCCN1CCC[C@@H]1C)nn2Cc1ccc(Cl)cc1 [EBP901],> 25,5.5,
COc1ccc(-c2ccc3c(c2)c(OCCCN2CCC[C@@H]2C)nn3Cc2ccc(Cl)cc2)cn1 [EBP902],> 25,8.3,
C[C@H]1CCCN1CCCOc1nn(Cc2ccc(Cl)cc2)c2ccc(-c3cnc(N)nc3)cc12 [EBP903],> 25,6.5,
C[C@H]1CCCN1CCCOc1nn(Cc2ccc(Cl)cc2)c2ccc(-c3ccncc3)cc12 [EBP904],> 25,8.2,
C[C@H]1CCCN1CCCOc1nn(Cc2ccc(Cl)cc2)c2ccc(NC3CCCCC3)cc12 [EBP917],> 25,8,
C[C@H]1CCCN1CCCOc1nn(Cc2ccc(Cl)cc2)c2ccc(N3CCCCCC3)cc12 [EBP918],11,8.2,
C[C@H]1CCCN1CCCOc1nn(Cc2ccc(Cl)cc2)c2ccc(N(C)Cc3ccccc3)cc12 [EBP924],> 25,5.7,
C[C@H]1CCCN1CCCOc1nn(Cc2ccc(Cl)cc2)c2ccc(N(C)c3ccccc3)cc12 [EBP925],> 25,5.7,
